Reference: patent US20110008888A1, “Novel Genetic Approaches to Reduce or Inhibit Tumorgenicity of Human Embryonic Stem Cells and Derivatives Following Transplantation” (The John Hopkins University, priority 2005, published 2011)
“Also recorded” adds a separate entry of the source. Read-outs that look alike come from different tables or passages of the source.

Tests used:
mESCs = assay: Cell proliferation assay, mESCs (viable cell count after 48 hours); format: cell-based, mouse; conditions: for EC50: mESCs, cell number after 48 hours, read-out: half-effective concentration (EC50) for inhibition of mESC proliferation; for effect on proliferation of mESCs (words): dose-dependent, p<0.05
hESCs = assay: Cell proliferation assay, hESCs (colony parameters after 6 days); format: cell-based, human; conditions: for effect on proliferation of hESCs: dose-dependent, p<0.05
[1] = tested on: delayed rectifier K+ currents (IKDR) in mESCs; assay: Whole-cell patch clamp, block of IKDR in undifferentiated mESCs; format: cell-based, mouse; conditions: for IC50: whole-cell patch clamp, room temperature
IKDR in hESCs = assay: Whole-cell patch clamp, block of IKDR in undifferentiated hESCs; format: cell-based, human; conditions: pluripotent hESCs (H1)
ESCs = assay: Cytotoxic effects of K+ channel blockers on ESCs; conditions: high concentrations

Compound	EC50 (mESCs; Mus musculus) [µM]	effect on proliferation of mESCs (words) (mESCs)	effect on proliferation of hESCs (hESCs)	IC50 ([1]; undifferentiated mESCs) [µM]	effect on proliferation of mESCs (words) (mESCs; listed as TEA+)	EC50 (mESCs) [µM]	IC50 (IKDR in hESCs) [µM]	EC50 (hESCs; hESCs, colony parameters after 6 days, read-out: EC50 for inhibition of hESC proliferation) [µM]	cytotoxic effects (ESCs)	IKDR component sensitive to blocker ([1]; mESCs, 100 nM IBTX)	current inhibition of IKDR in mESCs ([1]; undifferentiated mESCs, IBTX 100 nM, n=3) [%]
Nc1ccncc1 [4-AP, 4-aminopyridine]	4000 ± 1800	significantly reduced	significantly reduced	550 ± 170							
CC[N+](CC)(CC)CC [TEA]		significantly reduced	significantly reduced	1400 ± 380	significantly inhibited	11900 ± 1200	2100 ± 200	3800 ± 100			
iberiotoxin [IBTX]		significantly reduced; also recorded: dose-dependently reduced	significantly reduced						cytotoxic effects	sensitive	33.2±12.7
